# Data from patent EP0652009A1, “Identification and use of protease inhibitors” (ELI LILLY AND COMPANY, priority 1993, dated 1995).
# Target: Cathepsin D (Homo sapiens, UniProt P07339)
# Experiment: Assay 3: cathepsin D inhibition activity (non-cellular assay, chromogenic substrate)
# Type: biochemical
# Design: Frozen human placental tissue was thawed and homogenized; from tissue; host or cells: human placenta
# Settings: 4 µM test compound; inhibition of initial rate relative to control; cathepsin D from human placental tissue
# Description: A third non-cellular assay for determining in vitro aspartyl protease inhibitory activity is generally described in Jupp, R.A. et al., (1990) Biochem. J., 265:871-878 and Rao et al., J. Med. Chem. (1993), in press. The assay is carried out by incubating a test compound with a suitable aspartyl protease, such as cathepsin D, in the presence of a chromogenic substrate. The inhibition constant, Ki, value may then be determined by quantifying the competitive inhibition of the hydrolysis of the chromogenic substrate. A variety of chromogenic substrates that are useful for assaying aspartyl protease activity are discussed in Dunn, et al., (1986) Biochem. J., 237:899-906. A preferred chromogenic substrate for a cathepsin D assay is disclosed in Scarborough, P.E. et al., Protein Science, (1993), 2:264-276.
# Concentrations of substrate solutions and cleavage products may be verified using amino acid analysis. The enzyme preparations may be titrated with a tightly binding inhibitor to quantitate the active concentration of the enzyme. Enzyme concentrations are typically in the range of from 1-6 nM. Stock solutions of the test compound are prepared at concentrations ranging from 1.0 to 5.0 mg/mL, and then 50-100 µL portions of these stock solutions may be further diluted to a concentration in the range of 5 to 300 µM for rate determinations.
# […] Then, the test compounds are assayed over a concentration range of, for example, 5 to 300 µM for rate determinations.
# A decrease in absorbance in the range of 284-324 nm may be monitored using a spectrophotometer. Absorbance readings are typically taken at various timepoints. The initial velocities are then plotted versus the initial substrate concentration. […] Estimates of Ki may then be determined using the Dixon construction. Dixon, M., (1953) Biochem J., 55:170-171.
# If the ratio of the total active enzyme concentration to the estimated Ki value ([E]t/Ki) is less than 0.2, then the precise Ki value may be computed by using a non-linear curve fitting program based on the equation: v= Vmax [S]/[S] + Km (1 + [I]/Ki ) [formula] where v is the initial rate, [S] is the initial substrate concentration, [I] is the inhibitor concentration and Km and Ki are defined above. […] P.J.F., (1972) Biochem J., 127:321-333. This Assay is exemplfied in Assay 3.
# The homogenate was centrifuged at 10,000 rpm for 30 minutes in a Sorvall GSA rotor. The supernatant was adjusted to pH 3.7 using 5.7N HCl and then sodium acetate was added to a concentration of 0.1M. The resultant mixture was incubated for 30 minutes at 0°C, resulting in the formation of a precipitate. This precipitate was removed by centrifugation (30 minutes, 10,000 rpm). The acidic supernatent was applied to a chromatography column (pepstatinyl agarose equilibrated with 0.1M sodium acetate, pH 3.5, 0.1% Brij 35, and 1M NaCl), washed until the OD₂₈₀ of the effluent returned to baseline, and then eluted with 50mM Tris-HCl, pH 8.6, 0.1% Brij 35, and 1M NaCl. The eluent was dialyzed against 10mM sodium phosphate, pH 7.0, 0.1% Brij 35, and 0.1M NaCl, and then applied to a 1 mL DEAE-Sephacel column equilibrated with the same buffer. Cathepsin D was recovered in the breakthrough fraction.
# The enzyme mixture (125 µL buffer (0.1M sodium formate at pH 3.7), 1 µL of a 1mM solution of test compound, 4 µL of DMSO, enzyme and water to provide a total volume of 230 µL) was vortexed and prewarmed for four minutes before the addition of the chromogenic substrate. After warming, the enzyme mixture was added to 20 µL of a […] dilution of substrate solution. A control reaction mixture was similarly prepared without the addition of the test compound. The percent of inhibition of the initial rate of reaction in the presence of a particular concentration of test compound (i.e. 4 µM) may be determined for the test compound by monitoring the reaction mixture in parallel to the control reaction. […]
# Chain of Cathepsin D (P07339 169-412 limits assumed): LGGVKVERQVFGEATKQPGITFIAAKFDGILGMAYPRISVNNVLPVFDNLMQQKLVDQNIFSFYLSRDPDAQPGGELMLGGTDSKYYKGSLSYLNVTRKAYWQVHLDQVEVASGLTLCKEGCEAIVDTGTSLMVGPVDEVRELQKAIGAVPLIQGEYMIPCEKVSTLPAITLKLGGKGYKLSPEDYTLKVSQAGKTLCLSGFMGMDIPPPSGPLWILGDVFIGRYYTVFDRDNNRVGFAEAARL
# Chain of Cathepsin D (P07339 65-162 limits assumed): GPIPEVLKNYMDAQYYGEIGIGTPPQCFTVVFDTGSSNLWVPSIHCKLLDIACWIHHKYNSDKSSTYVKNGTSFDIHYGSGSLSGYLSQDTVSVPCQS
row,% inhibition at 4µ M [%],Compound
1,32,"[1S-(1R*,4R*,5S*)]-N-(1-(2-Amino-2-oxoethyl)-2-oxo-3-aza-4-phenylmethyl-5-hydroxy-6-(2-(1-t-butylamino-1- oxomethyl)phenyl)hexyl)-2-(6,7,8,9-tetrahydronaphthyl) carboxamide [Example 11]"

# Same assay, conditions: 4 µM test compound; inhibition of initial rate relative to control; cathepsin D from human placental tissue; read-out: % inhibition at 4µ M
row,Compound,inhibition at 4 µM [%]
1,"CC(C)(C)NC(=O)c1sccc1C[C@@H](O)[C@H](Cc1ccccc1)NC(=O)[C@H](CC(N)=O)NC(=O)c1ccc2ccccc2n1 [Example 14, [1S-(1R*,4R*,5S*)]-N-(1-(2-Amino-2-oxoethyl)-2-oxo-3-aza-4-phenylmethyl-5-hydroxy-6-(2-(1-t-butylamino-1-oxomethyl)thien-3-yl)hexyl)-2-quinolinyl carboxamide]",22
2,"CC[C@H](C)[C@H](NC(=O)OCc1ccc2ccccc2n1)C(=O)N[C@@H](Cc1ccccc1)[C@@H]1O[C@@H]1[C@H](Cc1ccccc1)NC(=O)[C@@H](NC(=O)OCc1ccc2ccccc2n1)[C@@H](C)CC [Example 3, 1,6-Diphenyl-2(S);5(S)-di[N-[2(S)-N[(quinolin-2-ylmethoxy)carbonyl]amino-3(S)-methylpentanoyl]amino]-3,4-cis-epoxyhexane]",40
3,"CC(C)(C)NC(=O)c1ccccc1C[C@@H](O)[C@H](Cc1ccccc1)NC(=O)[C@H](CC(N)=O)NS(=O)(=O)CCc1cccc2ccccc12 [Example 32, [2R-(2R*,3S*,6S*)]-N-t-Butyl-2-[2-hydroxy-3-phenylmethyl-4-aza-5-oxo-6-N(naphth-1-ylethylsulfonyl)amino-7-carbamoyl]heptyl benzamide]",12
4,"CC(C)(C)NC(=O)c1ccccc1C[C@@H](O)[C@H](Cc1ccccc1)NC(=O)[C@H](Cc1c[nH]cn1)NC(=O)[C@H](Cc1cccc2ccccc12)NC(=O)OC(C)(C)C [Example 27, [2R-(2R*,3S*,6S*,9S*)]-N-t-Butyl-2-[2-hydroxy-3-phenylmethyl-4,7-diaza-5,8-dioxo-6-(imidazol-4-ylmethyl)-9-N(t-butoxycarbonyl)amino-10-naphth-1-yl]decyl benzamide]",40
5,"CC(C)(C)NC(=O)c1ccccc1C[C@@H](O)[C@H](Cc1ccccc1)NC(=O)[C@H](CC(=O)O)NC(=O)c1ccc2ccccc2n1 [Example 15, [1S-(1R*,R*,5S*)]-N-(1-(2-Hydroxy-2-oxoethyl)-2-oxo-3-aza-4-phenylmethyl-5-hydroxy-6-(2-(1-t-butylamino-1-oxomethyl)phenyl)hexyl)-2-quinolinyl carboxamide]",49

# Results, then the compound that gave them:
row,inhibition at 4 µM [%],Compound
1,48,"CC(C)(C)NC(=O)c1ccccc1C[C@@H](O)[C@H](Cc1ccccc1)NC(=O)[C@H](CC(N)=O)NC(=O)c1cc(Cl)c2ccccc2n1 [Example 19, [1S-(1R*,4R*,5S*)]-N-(1-(2-Amino-2-oxoethyl)-2-oxo-3-aza-4-phenylmethyl-5-hydroxy-6-(2-(1-t-butylamino-1-oxomethyl)phenyl)hexyl)-4-chloroquinolin-2-yl carboxamide]"
2,43,"CC(C)(C)NC(=O)c1ccccc1C[C@@H](O)[C@H](Cc1ccccc1)NC(=O)[C@@H](CC(=O)O)NS(C)(=O)=O [Example 31, [2R-(2R*,3S*,6R*)]-N-t-Butyl-2-[2-hydroxy-3-phenylmethyl-4-aza-5-oxo-6-N(methylsulfonyl)amino-7-carboxy]heptyl benzamide]"

# Same assay, conditions: cathepsin D from human placental tissue, chromogenic substrate, pH 3.7, 37°C
row,Compound,Ki [nM]
1,"CCC(C)C(NC(=O)N(C)Cc1ccc2ccccc2n1)C(=O)NC(Cc1ccccc1)C1OC1C(Cc1ccccc1)NC(=O)C(NC(=O)N(C)Cc1ccc2ccccc2n1)C(C)CC [Example 5, 1,6-Diphenyl-2(S);5(S)-di[N-[2(S)-N[[N(methyl)-N(quinolin-2-ylmethyl)amino]carbonyl]amino-3(S)-methylpentanoyl]amino]-3,4-cis-epoxyhexane]",240
2,"CC(C)(C)NC(=O)c1ccccc1CC(O)C(Cc1ccccc1)NC(=O)C(CC(N)=O)NC(=O)C(Cc1cccc2ccccc12)NC(=O)OC(C)(C)C (stereo not drawn) [Example 26, [2R-(2R*,3S*,6S*,9S*)]-N-t-Butyl-2-[2-hydroxy-3-phenylmethyl-4,7-diaza-5,8-dioxo-6-(2-amino-2-oxoethyl)-9-N(t-butoxycarbonyl)amino-10-naphth-1-yl]decyl benzamide]",2300 ± 410
3,"CC(C)(C)NC(=O)c1ccccc1CC(O)C(Cc1ccccc1)NC(=O)C(CC(N)=O)NC(=O)c1ccc2ccccc2n1 (stereo not drawn) [Example 6, [1S-(1R*,4R*,5S*)]-N-[1-(2-amino-2-oxoethyl)-2-oxo-3-aza-4-phenylmethyl-5-hydroxy-6-(2-(1-t-butylamino-1-oxomethyl)phenyl)hexyl]-2-quinolinyl carboxamide]",1800 ± 260
4,"Cc1ccc2ccc(C(=O)N[C@@H](CC(N)=O)C(=O)N[C@@H](Cc3ccccc3)[C@H](O)Cc3ccccc3C(=O)NC(C)(C)C)nc2c1 [Example 8, [lS-(1R*,4R*,5S*)]-N-(1-(2-amino-2-oxoethyl)-2-oxo-3-aza-4-phenylmethyl-5-hydroxy-6-(2-(1-t-butylamino-1-oxomethyl)phenyl)hexyl)-7-methylquinolin-2-yl carboxamide]",1170
5,"Cc1cc(C(=O)N[C@@H](CC(N)=O)C(=O)N[C@@H](Cc2ccccc2)[C@H](O)Cc2ccccc2C(=O)NC(C)(C)C)nc2ccccc12 [Example 10, [1S-(1R*,4R*,5S*)]-N-(1-(2-Amino-2-oxoethyl)-2-oxo-3-aza-4-phenylmethyl-5-hydroxy-6-(2-(1-t-butylamino-1-oxomethyl)phenyl)hexyl)-4-methylquinolin-2-yl carboxamide]",5510

# Further lines, results first:
row,Ki [nM],Compound
1,2300 ± 200,"CC(C)(C)NC(=O)c1ccccc1CC(O)C(Cc1ccccc1)NC(=O)C(CC(=O)NCc1ncc[nH]1)NC(=O)c1ccc2ccccc2n1 (stereo not drawn) [Example 17, [1S-(1R*,4R*,5S*)]-N-(1-(2-(N-2-Imidazolylmethyl)amino)-2-oxoethyl)-2-oxo-3-aza-4-phenylmethyl-5-hydroxy-6-(2-(1-t-butylamino-1-oxomethyl)phenyl)hexyl)-2-quinolinyl carboxamide]"
2,18,"CC(C)C(NC(=O)OCc1ccc2ccccc2n1)C(=O)NC(Cc1ccccc1)C(O)C(O)C(Cc1ccccc1)NC(=O)C(NC(=O)OCc1ccc2ccccc2n1)C(C)C [Example 34, 1,6-Diphenyl-2(S),5(S)-di[N-[2(S)-N(quinolin-2-ylmethoxycarbonyl)amino-3-methylbutanoyl]amino]-3,4-dihydroxyhexane]"
3,2200 ± 200,"CC(C)(C)NC(=O)c1ccccc1C[C@@H](O)[C@H](Cc1ccccc1)NC(=O)[C@H](CC(=O)NCc1nc2ccccc2[nH]1)NC(=O)c1ccc2ccccc2n1 [Example 18, [1S-(1R*,4R*,5S*)]-N-(1-(2-(N-2-Benzimidazolylmethyl)amino)-2-oxoethyl)-2-oxo-3-aza-4-phenylmethyl-5-hydroxy-6-(2-(1-t-butylamino-1-oxomethyl)phenyl)hexyl)-2-quinolinyl carboxamide]"
4,23 ± 3,"CC(C)C(NC(=O)OCc1ccccc1)C(=O)NC(Cc1ccccc1)C(O)C(O)C(Cc1ccccc1)NC(=O)C(NC(=O)OCc1ccccc1)C(C)C [Example 33, 1,6-Diphenyl-2(S),5(S)-di[N-[2(S)-N(benzyloxycarbonyl)amino-3-methyl-butanoyl]amino]-3,4-dihydroxyhexane]"
5,86,"CC(C)C(NC(=O)OCc1ccccn1)C(=O)NC(Cc1ccccc1)C(O)C(O)C(Cc1ccccc1)NC(=O)C(NC(=O)OCc1ccccn1)C(C)C [Example 35, 1,6-Diphenyl-2(S),5(S)-di[N-[2(S)-N(pyrid-2-ylmethoxycarbonyl)amino-3-methylbutanoyl]amino]-3,4-dihydroxyhexane]"
